Experimental data from BindingDB's records for doi:10.7270/Q2TX3CTT (Broad Institute, 2010).

These molecules were tested against Glycogen synthase kinase-3 beta (Homo sapiens, UniProt P49841) (assay: concentration-response blocking of human GSK3B – biochemical, luminescence, cell-free homogeneous, retest, dose response (AID 434954)).
Glycogen synthase kinase-3 beta, sequence (P49841 whole entry): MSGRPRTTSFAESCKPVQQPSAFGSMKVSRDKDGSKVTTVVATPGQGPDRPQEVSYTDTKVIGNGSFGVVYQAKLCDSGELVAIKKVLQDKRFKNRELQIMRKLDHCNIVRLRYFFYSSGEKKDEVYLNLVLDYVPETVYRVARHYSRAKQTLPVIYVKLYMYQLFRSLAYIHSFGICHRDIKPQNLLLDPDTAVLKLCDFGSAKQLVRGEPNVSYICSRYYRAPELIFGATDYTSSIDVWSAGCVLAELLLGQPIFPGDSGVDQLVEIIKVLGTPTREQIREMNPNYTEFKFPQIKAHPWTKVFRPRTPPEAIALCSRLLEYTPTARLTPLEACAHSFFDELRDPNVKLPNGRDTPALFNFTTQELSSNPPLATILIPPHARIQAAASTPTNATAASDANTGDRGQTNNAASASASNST

Compound | EC50 [µM]
Nc1nc(Nc2ccccc2)nc(NCc2ccco2)c1[N+](=O)[O-] [4-N-(furan-2-ylmethyl)-5-nitro-2-N-phenylpyrimidine-2,4,6-triamine] | 4.89
COC(=O)c1ccc(CSc2nnc(-c3ccncc3)o2)cc1 | > 300
Cc1cc2c(N3CCCCC3C)ncnc2s1 (stereo not given) [SMR000033135] | > 300
O=C(O)c1cccnc1-c1ncccc1C(=O)O | > 300
CC(C)CC(CO)N1CCN(C(=O)c2ccc(Cl)c(Cl)c2)CCC1=O (stereo not given) [1-(3,4-dichlorobenzoyl)-4-(1-hydroxy-4-methylpentan-2-yl)-1,4-diazepan-5-one] | > 300
CCc1ccc(Oc2ncnc(N)c2[N+](=O)[O-])cc1 [6-(4-ethylphenoxy)-5-nitro-4-pyrimidinamine] | > 300
O=C(O)COc1ccc(C(=O)c2ccccc2)cc1 [2-[4-(phenylcarbonyl)phenoxy]ethanoic acid] | > 300
CCC(C)Nc1nc(N)c([N+](=O)[O-])c(Nc2ccccc2OC)n1 (stereo not given) [SMR000434817] | 0.632
Cc1ccc(-n2c(N)c(C(=O)NCc3cccnc3)sc2=S)cc1 [MLS000535145] | > 300
O=C(Nc1cccnc1)Nc1ccccn1 [MLS000104821] | > 300
CC(C)CC(=O)Nc1ccccc1-c1nnn(CC(=O)N2CCc3ccccc3C2)n1 [SMR000122537] | > 300
Nc1nc(Nc2cccc(F)c2)nc(N2CCOCC2)c1[N+](=O)[O-] [2-N-(3-fluorophenyl)-6-morpholin-4-yl-5-nitropyrimidine-2,4-diamine] | > 300
O=[N+]([O-])c1ccc(-n2nnnc2-c2ccccc2)c([N+](=O)[O-])c1 [1-{2,4-bisnitrophenyl}-5-phenyl-1H-tetraazole] | > 300
OC[C@H]1O[C@@H](n2cnc3c(O)ncnc32)[C@H](O)[C@@H]1O [Atorel] | > 300
CCOc1ccccc1C=NNC(=O)c1nnn(-c2nonc2N)c1CN1CCCC1 [1-(4-amino-1,2,5-oxadiazol-3-yl)-N-[(2-ethoxyphenyl)methylideneamino]-5-(pyrrolidin-1-ylmethyl)triazole-4-carboxamide] | 1.06
O=C(CN(Cc1ccc(F)cc1)C(=O)CCC(=O)Nc1ccccn1)NCc1ccc(F)cc1 [N-(4-Fluoro-benzyl)-N-[(4-fluoro-benzylcarbamoyl)-methyl]-N'-pyridin-2-yl-succinamide] | 37.7
O=C(Nc1ncnc2sc3c(c12)CCCC3)c1ccncc1 [N-(5,6,7,8-tetrahydro-[1]benzothiolo[2,3-d]pyrimidin-4-yl)-4-pyridinecarboxamide] | 42.4
O=C(Nc1ccc(O)c2c(=O)cc(-c3ccccc3Cl)oc12)c1ccc(Cl)c(Cl)c1 | 117
COc1ccccc1C(=O)Oc1ccc(C(C)(C)C)cc1 | > 300
COCCOC(=O)C(C#N)c1nc2ccccc2nc1N1CCN(Cc2ccccc2)CC1 (stereo not given) [MLS000078656] | > 300
Cc1c(Cc2ccccc2)c(=O)oc2cc(O)cc(O)c12 [SMR000300454] | 15.8
COc1ccc(Nc2nc(N)nc(CSc3nncn3C)n2)cc1 [N-(4-methoxyphenyl)-6-{[(4-methyl-4H-1,2,4-triazol-3-yl)thio]methyl}-1,3,5-triazine-2,4-diamine] | 41.3
CCOC(=O)CSc1ccc2nnc(CCNS(=O)(=O)c3ccccc3)n2n1 [ethyl [(3-{2-[(phenylsulfonyl)amino]ethyl}[1,2,4]triazolo[4,3-b]pyridazin-6-yl)thio]acetate] | > 300
COc1ccc(CCN(C)C(=O)c2ccc(S(=O)(=O)Nc3ccccc3C)cc2)cc1OC | > 300

Compound | EC50 [µM]
CSc1nsc(CC=Nc2ccc(Cl)cc2)c1C#N [MLS000539457] | > 300
COc1ccc(Nc2nc3ccc(OC)cc3s2)cc1 [MLS000684722] | > 300
COc1ccc(-c2nn(-c3ccccc3)cc2C=O)cc1[N+](=O)[O-] [MLS001163277] | > 300
CCOc1cccc(C(=O)Nc2cccc(-c3nc4ncccc4o3)c2C)c1 [3-ethoxy-N-[2-methyl-3-([1,3]oxazolo[4,5-b]pyridin-2-yl)phenyl]benzamide] | > 300
O=C1Nc2ccccc2C1=NN1CCOCC1 [3-(morpholin-4-ylamino)indol-2-one] | > 300
Cc1[nH]nc2c1C(c1cccs1)C1C(=O)CC(C)(C)CC1=N2 (stereo not given) [3,7,7-trimethyl-4-thiophen-2-yl-2,4,6,8-tetrahydro-1H-pyrazolo[3,4-b]quinolin-5-one] | 1.36
COc1ccc(-c2nn(-c3ccccc3)cc2C=NN=C(N)N)cc1OC [SMR000261891] | > 300
Cc1ccc([N+](=O)[O-])cc1/N=C1\C(=O)Nc2ccccc21 | > 300
Nc1nonc1-n1nnc(C(=O)NN=Cc2ccccc2F)c1-c1cccs1 | 14.4
O=C1Nc2cc(C(=O)N3CCC(N4CCCCC4)CC3)ccc2S/C1=C\c1ccccc1 [SMR000635251] | 16.9
COc1ccc(-n2c(Cc3cccn3C)nnc2SCC(=O)NCC2CCCO2)cc1 (stereo not given) [2-[[4-(4-methoxyphenyl)-5-[(1-methylpyrrol-2-yl)methyl]-1,2,4-triazol-3-yl]sulfanyl]-N-(oxolan-2-ylmethyl)acetamide] | > 300
CC1=C(C(=O)Nc2ccccc2F)C(c2ccsc2)C2C(=O)CC(C)(C)CC2=N1 (stereo not given) [N-(2-fluorophenyl)-2,7,7-trimethyl-5-oxo-4-(3-thiophenyl)-1,4,6,8-tetrahydroquinoline-3-carboxamide] | > 300
CCN1CCN(c2nc(Nc3cc(OC)ccc3OC)nc(Nc3cc(OC)ccc3OC)n2)CC1 [SMR000439674] | > 300
COc1ccc(-c2nn(-c3ccccc3)cc2/C=C/C(=O)N2CCOCC2)cc1OC [MLS001017845] | > 300
CNc1nc(N)c([N+](=O)[O-])c(NC2CCCCC2)n1 [4-N-cyclohexyl-2-N-methyl-5-nitropyrimidine-2,4,6-triamine] | 7.52
O=C(CSc1n[nH]c(=O)[nH]c1=O)c1ccc(Cl)cc1Cl [6-[2-(2,4-dichlorophenyl)-2-oxoethyl]sulfanyl-2H-1,2,4-triazine-3,5-dione] | > 300
COC(=O)C1=C(C)N(CCCC(=O)O)C(=O)NC1c1ccc([N+](=O)[O-])cc1 (stereo not given) [MLS000562939] | > 300
Oc1ccc(N2CCN(C(=S)NCCc3ccccc3)CC2)cc1 [SMR000199335] | > 300
Nc1nc(Nc2ccc(Cl)cc2)nc(NCCO)c1[N+](=O)[O-] [2-[[6-amino-2-(4-chloroanilino)-5-nitropyrimidin-4-yl]amino]ethanol] | 1.7
Cc1cc(C)n(S(=O)(=O)c2ccc(C)c(C)c2)n1 [SMR000515396] | > 300
CCOc1ccc(CN=Nc2ccccn2)cc1OC [MLS001005584] | > 300
CC(C)Nc1nc(-c2cccnc2)nc(-c2ccccc2)c1C#N [4-phenyl-6-(propan-2-ylamino)-2-pyridin-3-yl-pyrimidine-5-carbonitrile] | > 300
Cc1cccc(NC(=O)C(C)n2cc([N+](=O)[O-])cn2)n1 (stereo not given) [N-(6-methylpyridin-2-yl)-2-(4-nitro-1H-pyrazol-1-yl)propanamide] | > 300
COc1cccc2c1cc1c(=O)n(CC(=O)NCc3ccccn3)nc(C)n12 [2-(9-methoxy-4-methyl-1-oxo-[1,2,4]triazino[4,5-a]indol-2-yl)-N-(pyridin-2-ylmethyl)acetamide] | > 300

Compound | EC50 [µM]
Cc1ccc(S(=O)(=O)NC2=NC(=O)/C(=C/c3ccccc3)S2)cc1 [4-methyl-N-[(5Z)-4-oxo-5-(phenylmethylene)-2-thiazolyl]benzenesulfonamide] | > 300
COC(=O)[C@@H]1Cc2c([nH]c3ccccc23)C2CCC(=O)N21 (stereo partly drawn) [methyl (5S)-3-oxidanylidene-1,2,5,6,11,11b-hexahydroindolizino[8,7-b]indole-5-carboxylate] | > 300
C=CCNC(=S)NN=Cc1cn(-c2ccccc2)nc1-c1ccc(OC)cc1 [SMR000212115] | 42.5
COCCn1c(SCC(=O)NCc2ccccc2)nc2ccccc21 [MLS001171409] | > 300
CCOC(=O)c1c(C)[nH]c(C)c1S(=O)(=O)N(C)CC(=O)Nc1cccc(F)c1 [ethyl 4-[[2-(3-fluoroanilino)-2-oxoethyl]-methylsulfamoyl]-2,5-dimethyl-1H-pyrrole-3-carboxylate] | > 300
CN1CCc2c(sc3c2c(=O)n(-c2ccccc2)c2nncn32)C1 [SMR000045494] | > 300
CC1(C)CC(=O)C(C2(O)C(=O)Nc3ccccc32)CO1 (stereo not given) [MLS000689086] | > 300
CC(C)CCNc1nc(N)c([N+](=O)[O-])c(NC2CCCCC2)n1 | > 300
CSc1nc(C)cc(-n2ccc(=O)[nH]c2=O)n1 [1-[6-methyl-2-(methylthio)-4-pyrimidinyl]pyrimidine-2,4-dione] | 25.8
COc1ccc(-c2nn(-c3ccccc3)cc2C=NNC(=S)NC(C)C)cc1OC [1-[[3-(3,4-dimethoxyphenyl)-1-phenyl-4-pyrazolyl]methylideneamino]-3-propan-2-ylthiourea] | > 300
O=C1NC(=NNc2ccccc2)SC1=Cc1ccccc1 [SMR000174572] | > 300
CC(=O)N1CCc2c(sc(NC(=O)C3COc4ccccc4O3)c2C(N)=O)C1 (stereo not given) [2-(2,3-dihydro-1,4-benzodioxin-3-ylcarbonylamino)-6-ethanoyl-5,7-dihydro-4H-thieno[2,3-c]pyridine-3-carboxamide] | 8.32
O=C(CN1C(=O)COc2ccccc21)Nc1ccccc1F [MLS001205921] | > 300
Nc1ncnc(N(c2ccccc2)C2CCCCC2)c1[N+](=O)[O-] [N-cyclohexyl-5-nitro-N-phenyl-4,6-pyrimidinediamine] | > 300
CCC(C)Nc1nc(N)c([N+](=O)[O-])c(NCc2ccccc2)n1 (stereo not given) | 9.62
COCCNc1nc(N)c([N+](=O)[O-])c(NCC2CCCO2)n1 (stereo not given) [MLS000588049] | 13
COc1ccc(C(=O)c2sc(Nc3ccccc3)nc2N)cc1 | 1.04
CCOC(=O)c1nnn(CC(=O)Nc2cccc(OC)c2)c1C(=O)OCC | > 300
O=[N+]([O-])c1cc(Cl)ccc1N1CCCCC1 [MLS000856435] | > 300
CSc1ncc(C(=O)Nc2ccccc2C)c(C)n1 | > 300
Cc1ccnc(NC(=O)C(C)n2cc([N+](=O)[O-])cn2)c1 (stereo not given) | 7.19
COc1ccc(NC(=O)Nc2ccccn2)cc1OC [N-(3,4-dimethoxyphenyl)-N'-2-pyridinylurea] | > 300
